Results as given in patent publication US20190314382A1, “COMPOUNDS AND PHARMACEUTICAL COMPOSITIONS THEREOF FOR THE TREATMENT OF INFLAMMATORY DISEASES” (Galapagos NV, priority 2016, published 2019).

Experiments:
Assay type in all cases: in vivo, human
Details in all cases: observed case
MIP-1β = assay: Biomarker study in RA subjects: serum MIP-1β, Luminex 18-Plex
Procedure: (§1) Double-blind, placebo-controlled add on study in subjects with moderately to severely active RA who have an inadequate response to MTX (oral or parenteral).
(§2) 595 subjects randomized to one of 6 dose regimens of Compound 1 (dosed as a [Compound 1:HCl:3H2O]) (3 dose levels administered either once or twice daily) or placebo on top of each subject's stable dose of MTX.
(§3) Compound 1 (dosed as a [Compound 1:HCl:3H2O]) is dosed for twelve weeks once daily (q.d.) (50 mg, 100 mg or 200 mg) or twice daily (b.i.d.) (25 mg, 50 mg or 100 mg); or placebo.
(§4) 18 parameters from human serum samples (GM-CSF, IFNγ, IL-1β, IL-2, IL-4, IL-5, IL-6, IL-7, IL-8, IL-10, IL-12 (p70), IL-13, IL-17A, IL-21, IL-23, MIP-1α, MIP-1β and TNF-α) are analyzed on a Luminex Plateform (BioPlex® L200) using a Luminex 18-Plex Kit (Millipore: HSTCMAG-28SK).
(§5) Coupled beads react with the sample containing the biomarker of interest. […] Phycoerythrin (PE) serves as a fluorescent indicator.
(§6) The concentration of bead bound analyte is proportional to the MFI (Median Fluorescent Intensity) and back-calculated from interpolation with the calibration curve fitted with a 4 or 5 parameters logistic (4PL or 5PL) regression model selected during method pre-validation.
(§7) Treatment effect was assessed using an ANCOVA model on the changes from baseline, with factors: treatment, baseline value of the PD marker, geographical region and previous use of biologics.

IL-4 = assay: Biomarker study in RA subjects: serum IL-4, Luminex 18-Plex
Procedure: as §1, §2, §3, §4, §5, §6, §7

GM-CSF = assay: Biomarker study in RA subjects: serum GM-CSF, Luminex 18-Plex
Procedure: as §1, §2, §3, §4, §5, §6, §7

IL-23 = assay: Biomarker study in RA subjects: serum IL-23, Luminex 18-Plex
Procedure: as §1, §2, §3, §4, §5, §6, §7

IL-7 = assay: Biomarker study in RA subjects: serum IL-7, Luminex 18-Plex
Procedure: as §1, §2, §3, §4, §5, §6, §7

[1] = 50 mg bid, Week 4, N = 73, RA subjects on MTX
[2] = 50 mg bid, Week 12, N = 73, RA subjects on MTX
[3] = 100 mg bid, Week 4, N = 79, RA subjects on MTX
[4] = 100 mg bid, Week 12, N = 79, RA subjects on MTX
[5] = 100 mg qd, Week 4, N = 68, RA subjects on MTX
[6] = 100 mg qd, Week 12, N = 68, RA subjects on MTX
[7] = 200 mg qd, Week 4, N = 75, RA subjects on MTX
[8] = 200 mg qd, Week 12, N = 75, RA subjects on MTX

Compound: O=C(Nc1nc2cccc(-c3ccc(CN4CCS(=O)(=O)CC4)cc3)n2n1)C1CC1 [Compound 1, cyclopropanecarboxylic acid {5-[4-(1,1-dioxo-thiomorpholin-4-ylmethyl)-phenyl]-[1,2,4]triazolo[1,5-a]pyridin-2yl}-amide]
- MIP-1β Mean change from baseline at Week 4 (MIP-1β; [1]): 0.4 pg/mL
- MIP-1β Mean change from baseline at Week 12 (MIP-1β; [2]): -1.1 pg/mL
- MIP-1β Mean change from baseline at Week 4 (MIP-1β; [3]): -2.1 pg/mL
- MIP-1β Mean change from baseline at Week 12 (MIP-1β; [4]): -1.3 pg/mL
- MIP-1β Mean change from baseline at Week 4 (MIP-1β; [5]): -0.7 pg/mL
- MIP-1β Mean change from baseline at Week 12 (MIP-1β; [6]): -1.7 pg/mL
- MIP-1β Mean change from baseline at Week 4 (MIP-1β; [7]): -1.6 pg/mL
- MIP-1β Mean change from baseline at Week 12 (MIP-1β; [8]): -1.5 pg/mL
- IL-4 Mean change from baseline at Week 4 (IL-4; [1]): -0.3 pg/mL
- IL-4 Mean change from baseline at Week 12 (IL-4; [2]): -2.1 pg/mL
- IL-4 Mean change from baseline at Week 4 (IL-4; [3]): -2.7 pg/mL
- IL-4 Mean change from baseline at Week 12 (IL-4; [4]): -2.7 pg/mL
- IL-4 Mean change from baseline at Week 4 (IL-4; [5]): 0.8 pg/mL
- IL-4 Mean change from baseline at Week 12 (IL-4; [6]): -1.6 pg/mL
- IL-4 Mean change from baseline at Week 4 (IL-4; [7]): 0.2 pg/mL
- IL-4 Mean change from baseline at Week 12 (IL-4; [8]): -2.5 pg/mL
- GM-CSF Mean change from baseline at Week 4 (GM-CSF; [1]): -5.4 pg/mL
- GM-CSF Mean change from baseline at Week 12 (GM-CSF; [2]): -14.4 pg/mL
- GM-CSF Mean change from baseline at Week 4 (GM-CSF; [3]): -12.4 pg/mL
- GM-CSF Mean change from baseline at Week 12 (GM-CSF; [4]): -21.1 pg/mL
- GM-CSF Mean change from baseline at Week 4 (GM-CSF; [5]): -9.3 pg/mL
- GM-CSF Mean change from baseline at Week 12 (GM-CSF; [6]): -19.5 pg/mL
- GM-CSF Mean change from baseline at Week 4 (GM-CSF; [7]): -8.4 pg/mL
- GM-CSF Mean change from baseline at Week 12 (GM-CSF; [8]): -15.0 pg/mL
- IL-23 Mean change from baseline at Week 4 (IL-23; [1]): -772.1 pg/mL
- IL-23 Mean change from baseline at Week 12 (IL-23; [2]): -888.7 pg/mL
- IL-23 Mean change from baseline at Week 4 (IL-23; [3]): -273.6 pg/mL
- IL-23 Mean change from baseline at Week 12 (IL-23; [4]): -831.6 pg/mL
- IL-23 Mean change from baseline at Week 4 (IL-23; [5]): 38.3 pg/mL
- IL-23 Mean change from baseline at Week 12 (IL-23; [6]): -337.9 pg/mL
- IL-23 Mean change from baseline at Week 4 (IL-23; [7]): -435.8 pg/mL
- IL-23 Mean change from baseline at Week 12 (IL-23; [8]): -949.7 pg/mL
- IL-7 Mean change from baseline at Week 4 (IL-7; [1]): -1.8 pg/mL
- IL-7 Mean change from baseline at Week 12 (IL-7; [2]): -2.6 pg/mL
- IL-7 Mean change from baseline at Week 4 (IL-7; [3]): -2.7 pg/mL
- IL-7 Mean change from baseline at Week 12 (IL-7; [4]): -3.0 pg/mL
- IL-7 Mean change from baseline at Week 4 (IL-7; [5]): -0.4 pg/mL
- IL-7 Mean change from baseline at Week 12 (IL-7; [6]): -1.2 pg/mL
- IL-7 Mean change from baseline at Week 4 (IL-7; [7]): -2.5 pg/mL
- IL-7 Mean change from baseline at Week 12 (IL-7; [8]): -3.3 pg/mL
